# Patent US9808470B2, “Estrogenic components for use in the treatment of neurological disorders” (UNIVERSITE DE LIEGE, priority 2012, dated 2017)
# Columns and labels:
# [1] = system: Microtubule-associated protein 2 (MAP2); assay: Ex.8 neuroprotective HIE rat model: MAP2 staining; format: in vivo; details: 10 mg/kg/day E4
# Method: Newborn rat pups were assigned to one of the following 14 groups from postnatal day 4 (FIG. 23(A)): Sham group (n=12), Vehicle group (n=17), 5 mg/kg/day E4 (n=13), 10 mg/kg/day E4 (n=10), 5 mg/kg/day E4+1.6 mg/kg/day PROG (n=11), 10 mg/kg/day E4+1.6 mg/kg/day PROG (n=11), 5 mg/kg/day E4+16 mg/kg/day PROG (n=11), 10 mg/kg/day E4+16 mg/kg/day PROG (n=11), 5 mg/kg/day E4+136 ng//kg/day E2 (n=11), 10 mg/kg/day E4+136 ng/kg/day E2 (n=11), 5 mg/kg/day E4+1.6 mg/kg/day PROG+136 ng/kg/day (n=13) E2, 10 mg/kg/day E4+1.6 mg/kg/day PROG+136 ng/kg/day E2 (n=16), 5 mg/kg/day E4+16 mg/kg/day PROG+136 ng/kg/day E2 (n=11), 10 mg/kg/day E4+16 mg/kg/day PROG+136 ng/kg/day groups (n=13). Intraperitoneal injections of the pups from study groups were performed from postnatal day 4 to postnatal day 7 inclusively. […]
# The brain sections were processed for immunohistochemical detection of neuronal cytoskeletal disruption. […] Samples were analyzed with the aid of an image scanner (Nanozoomer Virtual Microscopy, Hamamatsu, Tokyo, Japan) and the ImageJ software (NIH, US). The positive areas in the ipsilateral and contralateral hemispheres were measured. The ratio of the MAP2 positive areas was calculated as the MAP2 positive area of the ipsilateral hemisphere divided by the MAP2 positive area of the contralateral hemisphere. […]
# [2] = system: doublecortin (DCX); assay: Ex.4 therapeutic HIE rat model: doublecortin staining; format: in vivo
# Method: The sections were heated in 10 mmol/L citrate buffer (pH 6.0) at 100° C. for 10 minutes. Endogenous peroxidase activity was blocked with 3% hydrogen peroxide for 10 minutes and after a second blocking with 5% normal goat serum, the sections were incubated with anti-doublecortin (DCX) antibody, diluted 1:1000 (rabbit polyclonal antibody; Abcam, Cambridge, UK) and anti-vascular endothelial growth factor (VEGF) antibody, diluted 1:100 (mouse monoclonal antibody; Abcam, Cambridge, UK) overnight at 4° C. After rinsing, Alexa Fluor® goat anti-rabbit, diluted 1:1000 and Alexa Fluor® goat anti-mouse, diluted 1:1000 (Invitrogen Inc., Ghent, Belgium) were added and sections were incubated 1 h at room temperature. Mounting medium containing 4′,6-diamidino-2-phenylindole (DAPI) for fluorescent studies was used (Vector Laboratories). Samples were analyzed with the aid of a microscope (Olympus Vanox AHBT3, Olympus), and the ImageJ software (NIH). The percentage of positively stained cells was quantified as a sum of positively stained either DCX or VEGF cells divided by the total number of DAPI positive cells expressed in percentage.
# To study the therapeutic effect of estetrol, newborn rat pups were assigned to one of the following 6 groups at postnatal day 7: sham group (n=29), vehicle group (n=20), 1 mg/kg E4 group (n=16), 5 mg/kg E4 group (n=19), 10 mg/kg day E4 (n=17) and 50 mg/kg day E4 group (n=15). At postnatal day 7 animals were anesthetized with isoflurane (induction, 3.0%; maintenance, 1.5%), and the rat pups from vehicle and E4 groups passed through surgery encompassing left common carotid artery double ligation and cut. After surgery, the pups were returned to their dams and allowed to recover for 1 hour. The pups were then placed in a humidified hypoxic in vivo cabinet (CoyLab). Hypoxia was produced by the inhalation of 11%-8% of oxygen balanced by nitrogen at decreased concentration of oxygen for 20 minutes, followed by inhalation of 8% oxygen and 92% nitrogen at constant concentration for 35 minutes. All the manipulations were performed at 37° C.
# Upon retrieval from the hypoxia chamber the rat pups were injected intraperitoneally either by vehicle (vehicle group) or by E4 (1 mg/kg, 5 mg/kg, 10 mg/kg or 50 mg/kg) in accordance to the group assignment. The animals from the sham group went through similar procedures but proceeded neither left common carotid artery ligation and cut followed by hypoxia nor vehicle or estetrol administration. Rat pups recovered with their dams until being sacrificed at postnatal day 14.
compound,measurement,setting,value
"C[C@]12CC[C@@H]3c4ccc(O)cc4CC[C@H]3[C@@H]1[C@@H](O)[C@@H](O)[C@@H]2O [E4, 1,3,5(10)-estratrien-3,15α,16α,17β-tetrol]",ratio of MAP2-positive area (ipsilateral/contralateral),[1],0.97±0.01
same,percentage of DCX positively stained cells,"[2]; 5 mg/kg E4 single ip dose after HI, cortex",45.2±3.339%
same,percentage of DCX positively stained cells,"[2]; 10 mg/kg E4 single ip dose after HI, CA1",37.1±3.84
same,percentage of DCX positively stained cells,"[2]; 10 mg/kg E4 single ip dose after HI, CA2/CA3",42.5±5.986%
same,percentage of DCX positively stained cells,"[2]; 10 mg/kg E4 single ip dose after HI, cortex",49.4±4.949%
same,percentage of DCX positively stained cells,"[2]; 50 mg/kg E4 single ip dose after HI, CA1",37.3±4.784%
same,percentage of DCX positively stained cells,"[2]; 50 mg/kg E4 single ip dose after HI, cortex",49.6±3.11%
same,DCX staining,"[2]; E4 1, 5, 10, 50 mg/kg single ip dose after HI, DG, among study groups",neither DCX nor VEGF staining was significantly different
